Where two headings read alike, the source gives them in different places. Numbered stars: 1 amine (or outer) side, 2 acyl side, 3 side chain; on linkers, the order of the positions; unused ones are H or OH. Peptide text beside a SMILES is read from it. CO = O=C([*:1])[*:2]

The values below come from patent US10011868B2, “Reactivity-dependent and interaction-dependent PCR” (priority 2009, dated 2018).

For data set [1], the target named is T1, streptavidin (Streptomyces avidinii, UniProt P22629).
T1 construct: 5'-carboxylate ssDNA oligonucleotide 1a (Cy3-labelled), chemically coupled via NHS ester; purchased New England Biolabs
T1 sequence (P22629 25-183): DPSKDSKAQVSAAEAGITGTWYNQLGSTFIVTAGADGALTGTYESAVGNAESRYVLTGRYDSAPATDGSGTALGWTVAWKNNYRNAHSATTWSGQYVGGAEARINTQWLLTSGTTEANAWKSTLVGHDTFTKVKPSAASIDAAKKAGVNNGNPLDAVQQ
The data set is described as follows: Gel shift of 2b-desthiobiotin/streptavidin complex (FIG. 25c). It counts as binding. Conditions: duplex 10 nM, read-out: apparent Kd for streptavidin. How it is done: The DNA-ligand conjugate 2b-desthiobiotin was hybridized to a complementary 20-mer carrying a Cy3 label at the 3′-end. The resulting duplex (10 nM) was incubated with increasing concentrations of streptavidin in binding buffer (145 mM NaCl, 10 mM Tris/HCl, 10 mM MgCl2, 7 mM Na2PO4, 1.9 mM KCl, 1 mM dithiothreitol, pH 7.4), for 1 h and analyzed on a 20% TBE polyacrylamide gel. The appearance of a higher molecular weight band indicated formation of a streptavidin-2b-desthiobiotin complex. The apparent Kd was determined from the streptavidin concentration for which the bands corresponding to free DNA and to the complex were of approximately equal intensity.

The target in the next data set is T2, streptavidin (1a-SA) (Streptomyces avidinii, UniProt P22629).
T2 construct: 5'-carboxylate ssDNA oligonucleotide 1a (Cy3-labelled), chemically coupled via NHS ester; purchased New England Biolabs
T2 sequence (P22629 25-183): as above
Kind of data set: ID-PCR on single target-ligand pair, qPCR threshold cycle (FIG. 20b). The data set is classed as binding. Conditions: with 1a-SA, Klenow extension and qPCR.

The target in data set [2] is T3, carbonic anhydrase (Bos taurus, UniProt P00921). The data set is described as follows: Carbonic anhydrase enzymatic activity inhibition, 4-nitrophenyl acetate substrate (FIG. 25a,b). The data set is classed as biochemical, bovine. To be noted: 37° C.; read-out: Ki for CA.
T3 sequence (P00921 whole entry): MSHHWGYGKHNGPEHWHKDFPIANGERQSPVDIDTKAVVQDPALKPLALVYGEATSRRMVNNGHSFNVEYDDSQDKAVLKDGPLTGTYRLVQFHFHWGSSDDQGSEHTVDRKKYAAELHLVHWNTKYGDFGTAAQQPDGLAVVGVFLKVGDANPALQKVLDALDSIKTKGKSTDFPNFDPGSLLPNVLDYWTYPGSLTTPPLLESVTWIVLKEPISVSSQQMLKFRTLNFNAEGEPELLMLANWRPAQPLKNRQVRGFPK
Data set [3] addresses T4, trypsin (Bos taurus, UniProt P00760).
T4 sequence (P00760 24-246): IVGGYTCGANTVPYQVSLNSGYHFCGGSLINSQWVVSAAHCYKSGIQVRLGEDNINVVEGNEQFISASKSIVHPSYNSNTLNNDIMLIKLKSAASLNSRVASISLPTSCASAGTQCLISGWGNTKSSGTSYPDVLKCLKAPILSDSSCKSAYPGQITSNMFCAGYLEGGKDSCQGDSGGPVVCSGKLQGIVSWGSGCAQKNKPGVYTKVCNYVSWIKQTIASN
The data set is described as follows: Trypsin inhibition, fluorogenic substrate Z-Arg-AMC (FIG. 25d). It counts as biochemical, bovine. On the procedure: Conditions were adopted from a previously reported protocol.^17 Trypsin (200 fmol) was diluted in 90 μL PBS and was incubated with various concentrations of antipain, a known inhibitor of tryptic proteolysis, or 2e-antipain. The solution was equilibrated at room temperature for 10 minutes and at 35° C. for 5 minutes before addition of the fluorogenic proteolytic substrate Z-Arg-AMC (Bachem) (10 nmol in 10 μL 50% DMSO) (final volume=100 μL).
Equation Used to Fit Ki from Inhibitory Curves (FIGS. 25a, b, d).
The Ki was determined by fitting the following equation to the plot of normalized activity vs. inhibitor concentration: Vo=c+d(([E]tot+[i]tot+Ki)−sqrt((−[E]tot−[I]tot−Ki)^2−4*[E]tot*[I]tot))/(2*[E]tot), where Vo is initial reaction velocity, [E]tot is total enzyme concentration, [I]rot is total inhibitor concentration; c and d are variable parameters for the maximum Vo and for the difference between the minimum and maximum Vo, respectively.

In data set [4] the target is T4, trypsin. Conditions: trypsin and antipain; cited from earlier work.
Data set [5] has as its target T1, streptavidin. Kind of data set: ID-PCR model selection, ligand library x target library in one solution (FIG. 22). The data set is classed as binding. Conditions: DNA-linked ligand; relative to control lacking proteins; 261 ligand x 259 target sequences. How it is done: (§1) Finally, we tested the ability of ID-PCR to simultaneously evaluate all possible combinations of multiple ligands and multiple targets in a single solution. […] The negative control ligand and target were conjugated to libraries of 256 different sequence tags. The resulting solution therefore contained equimolar quantities of each of 261 ligand sequences and each of 259 target sequences, collectively representing 67,599 possible ligand-target sequence combinations. A control sample was prepared identically except using DNA not conjugated to any protein targets. Both samples were subjected to ID-PCR followed by high-throughput DNA sequencing.
(§2) A control primer extension reaction was also performed using the same pool of ligand strands, but with a pool of target strands lacking conjugated proteins (1, 1i, 1j, 60 pM each and 1k, 9.8 nM). Adapter sequences required for Illumina sequencing, as well as barcodes identifying the input and selection experiments, were installed by PCR with either Primer C (input control) or Primer D (selection) and Primer E. The appropriate cycle number for each reaction was determined by qPCR evaluation, such that preparative PCR reactions (50 μL total volume) were stopped in the exponential amplification phase in order to minimize dynamic compression during PCR. […]

Data set [6] deals with 68-nt DNA aptamer that binds daunomycin. To be noted: DNA aptamer and daunomycin; cited from earlier work.
Another data set deals with streptavidin (SA) (Streptomyces avidinii, UniProt P22629). To be noted: free ligand and streptavidin; cited from earlier work.
streptavidin (SA), sequence (P22629 25-183): as the sequence (P22629 25-183) above
For data set [7], the target named is T3, carbonic anhydrase. Kind of data set: ID-PCR model selection, ligand library x target library in one solution (FIG. 22). It counts as binding, bovine. Conditions: DNA-linked ligand; relative to control lacking proteins; 261 ligand x 259 target sequences. On the procedure: as §1, §2
For data set [8], the target named is carbonic anhydrase II (CA) (Bos taurus, UniProt P00921). To be noted: cited from earlier work.
carbonic anhydrase II (CA), sequence (P00921 whole entry): as the sequence (P00921 whole entry) above

Procedure for streptavidin (1a-SA): We investigated whether binding between a small molecule and a protein could replace a covalent linkage in a DNA hairpin and support extension and PCR. […] The target and ligand strands shared a 6-nt complementary region.
An extension mixture consisting of 10×NEB Buffer 2 (2 μL), dNTPs (660 pmol each in 2 μL water), and the target strand (200 fmol in 9 μL PBS) was incubated at 37° C. for 5 minutes. The appropriate ligand strand (200 fmol in 2 μL water) was added and the reaction mixture was incubated at 37° C. for 15 minutes. Klenow fragment exo^− (2.5 U in 5 μL of 1×NEB Buffer 2, New England Biolabs) was added. The primer extension reaction (final volume=20 μL) was incubated at 37° C. for 15 minutes. The polymerase was inactivated by heating to 75° C. for 20 minutes.
For each 25 μL qPCR reaction, 12.5 μL of 2×SYBR Green iQ Supermix (Bio-Rad) was combined with 1 μL of 10 μM Primer A, 1 μL of 10 μM Primer B, and 9.5 μL Milli Q H2O. […] Quantitative PCR was performed using a CFX-96 Real-Time System with a C1000 Thermal Cycler (Bio-Rad). […]
All primer extension and qPCR reactions were performed as described above, except that free ligand (200 pmol in 2 μL 10% DMSO) or DMSO (2 μL of 10% DMSO) was added when appropriate. […] Unless otherwise noted, PCR products were analyzed by PAGE on 10% TBE gels at 200 V for 25 minutes staining with ethidium bromide and imaging on a Chemilmager (AlphaInnotech). […]

As to “2b-desthiobiotin: ligand strand 2 conjugated to desthiobiotin (SEQ 57) (TGGATCGTGATGACTGTCCCGACAAGCATACGTATCTCACT; desthiobiotin conjugated, position not given here)”, the Kd with streptavidin [1] was determined as 8 nM. The “amplification efficiency in ID-PCR” value in the data set with streptavidin (1a-SA) was “comparable to that of 2a-biotin”. As for “2s-GLCBS: GLCBS-DNA conjugate (SEQ 78) (DNA TGGATCGTGATGACTGTCCCGACAAGGATCCGTATCTCACT; DNA, backbone and methylation of C not given here; GLCBS conjugated at 3' end, further chemistry not fully specified)”, the Ki with carbonic anhydrase [2] was determined as 380 nM.

Consider `CC(C)[C@H](NC(=O)[C@H](CCCNC(=N)N)NC(=O)N[C@@H](Cc1ccccc1)C(=O)O)C(=O)N[C@H](C=O)CCCNC(=N)N` [antipain] ({Phe-CO}-Arg-Val-Arg-aldehyde), for which the Ki at trypsin [3] is 39.5 nM; at trypsin [4], 100 nM. Regarding `O=C(O)CCCC[C@@H]1SC[C@@H]2NC(=O)N[C@@H]21` [biotin], the “Enrichment Factor” value on streptavidin [5] was found to be 860. Turning to `COc1cccc2c1C(=O)c1c(O)c3c(c(O)c1C2=O)C[C@@](O)(C(C)=O)C[C@@H]3O[C@H]1C[C@H](N)[C@H](O)[C@H](C)O1` [daunomycin], the Kd in data set [6] is 272 nM.

On to `C[C@@H]1NC(=O)N[C@@H]1CCCCCC(=O)O` [desthiobiotin], for which, at streptavidin [5], the “Enrichment Factor” value is 3078. Also, the Kd at streptavidin (SA) is 2 nM. As to Gly-Leu-CBS [GLCBS], the Ki at carbonic anhydrase [2] is 470 nM; in data set [8] (FIG. 20 legend), 9 nM. Moreover, the “Enrichment Factor” value at carbonic anhydrase [7] is recorded as 225. For the same molecule, in [8] (text b276), the Kd was 9 nM.
